System: β2AR
Conditions: Indian population; χ2=11.28, df=2, p=0.004

CC(C)(C)NCC(O)c1ccc(O)c(CO)c1 (stereo not shown) [salbutamol]
association of responder status to treatment with genotype at β2AR gene: strongly associated
